Converted amounts (≈) assume the structure as drawn. “And” between values parts separate entries of the source, which are not always exact repeats. Equal values may be shown once.
What was measured:
[1] = test system: pathogenic organisms, particularly gram-positive bacteria; experiment: Inhibition of growth of pathogenic organisms; format: cell-based
[2] = test system: Streptococcus pyogenes C203; experiment: MIC, standard agar-dilution test; format: cell-based; conditions: Table XI, sodium salt
Toxicity (LD50) in mouse = format: in vivo
Clostridium septicum = experiment: MIC anaerobic bacteria, standard agar-dilution test; format: cell-based
[3] = test system: Fusobacterium necrophorum; experiment: as above; format: cell-based
[4] = test system: Peptostreptococcus intermedius; experiment: as above; format: cell-based
[5] = test system: Peptostreptococcus anaerobius; experiment: as above; format: cell-based
Clostridium perfringens = format: cell-based; conditions: anaerobic, agar-dilution
Eubacterium aerofaciens = experiment: MIC anaerobic bacteria, standard agar-dilution test; format: cell-based
[6] = Electrometric titration in 66% aqueous dimethylformamide; format: physicochemical; conditions: 66% DMF; Na salt; factors: two determinations
Staphylococcus aureus [7] = experiment: MIC, agar dilution (Table XV); format: cell-based
Description: ^1 MIC = minimum inhibitory concentration (μg/ml), agar dilution

[8] = test system: Viridans Streptococcus 9943; experiment: MIC, standard broth-dilution test; format: cell-based; conditions: Table XII, sodium salt
[9] = test system: Group D Streptococcus 282; experiment: MIC, standard agar-dilution test; format: cell-based; conditions: Table XI, sodium salt
[10] = test system: Streptococcus pneumoniae Park I; experiment: MIC, standard agar-dilution test; format: cell-based; conditions: Table XI, sodium salt
Streptococcus pyogenes [11] = experiment: MIC, agar dilution (Table XV); format: cell-based
[12] = test system: Streptococcus pyogenes C203; experiment: MIC, standard broth-dilution test; format: cell-based; conditions: Table XII, sodium salt
Peptococcus prevoti = experiment: MIC anaerobic bacteria, standard agar-dilution test; format: cell-based
Bacteroides fragilis = experiment: as above; format: cell-based
Actinomyces isaelii = experiment: as above; format: cell-based
[13] = test system: Staphylococcus aureus 3055; experiment: MIC, standard agar-dilution test; format: cell-based; conditions: Table XI, sodium salt
Staphylococcus aureus [14] = experiment: Experimental bacterial infection in mice, ED50; format: in vivo; conditions: two doses, subcutaneous administration
Procedure: (§1) When two doses of test compound were administered to mice in illustrative infections, the activity observed was measured as an ED50 value [effective dose in mg/kg to protect fifty percent of the test animals: See Warren Wick, et al., J. Bacteriol. 81, 233-235 (1961)].

Streptococcus pneumoniae [15] = experiment: Experimental bacterial infection in mice, ED50; format: in vivo; conditions: two doses, subcutaneous administration
Procedure: as §1

Streptococcus pyogenes [16] = experiment: Experimental bacterial infection in mice, ED50; format: in vivo; conditions: two doses
Procedure: as §1

[17] = test system: Streptococcus faecalis (Guze); experiment: Streptococcus faecalis descending rat pyelonephritis test; format: in vivo, rat (female albino, Cox-Wistar); conditions: 1.0 mg/kg × 7, subcutaneous
Procedure: In this test, the bacterial culture used was Streptococcus faecalis (Guze). The culture was grown on Trypticase soy agar (BBL), suspended in brain heart infusion broth (BBL), divided into 0.2-ml portions, and frozen in liquid nitrogen. Bacterial suspensions for rat inoculations were prepared daily by seeding a 50-ml flask of trypticase soy broth (BBL) from a frozen ampoule and growing the culture overnight at 37° C. on a shaker. The S. faecalis culture was diluted to 5×10^8 colony-forming units per ml. Test compounds were injected subcutaneously once daily for seven days. All compounds were suspended in 0.125% carboxymethylcellulose.
The experimental rat infections were accomplished by the following procedure. Female, random-bred albino rats (Cox-Wistar) weighing 190 to 210 g were anesthetized by intraperitoneal injection of 12 mg of sodium methohexital supplemented as necessary. The experimental pyelonephritis model was based on the studies of Guze and Beeson in which the left ureter was occluded for 20 min, followed by injection of 0.5 ml of the test organism in the femoral vein. Antimicrobial therapy was commenced 4 to 5 hrs postinfection. Four hours after the last treatment the rats were sacrificed, and the left kidney was removed and homogenized in a Duall grinder containing 9 ml of physiological saline. This represented a 10^-1 dilution of the kidney tissue. Additional 10-fold dilutions in saline were based on the anticipated bacterial cells present in the tissue homogenate. Finally, duplicate agar pour plates were made from several of these dilutions, and the plates were incubated overnight at 37° C. The therapeutic results were expressed in two ways: (i) the percentage of rats with kidney counts of less than 10^2 per g of kidney tissue, referred to as "cures," and (ii) the percentage of rats with at least a 4-log10 reduction in bacterial titer compared with infected control kidneys. Control rats were treated with 0.125% carboxymethylcellulose only. Viable cell counts in kidney tissue from control rats with S. faecalis ranged from 1.2×10^8 to 4.6×10^8 per g of homogenized tissue.

[18] = test system: Group D Streptococcus 282; experiment: MIC, standard broth-dilution test; format: cell-based; conditions: Table XII, sodium salt
Micrococcus luteus = experiment: Bioassay, paper-disc agar-diffusion; conditions: Na salts; Table VIII
Streptococcus pneumoniae [19] = experiment: MIC, agar dilution (Table XV); format: cell-based
[20] = test system: Streptococcus faecalis (Guze); experiment: In vitro susceptibility (MIC) of the S. faecalis Guze strain; format: cell-based; conditions: Table XVI
Propionibacterium acnes = experiment: MIC anaerobic bacteria, standard agar-dilution test; format: cell-based
[21] = test system: Peptococcus asaccharolyticus; experiment: as above; format: cell-based
[22] = test system: Staphylococcus aureus 3055; experiment: MIC, standard broth-dilution test; format: cell-based; conditions: Table XII, sodium salt
[23] = test system: Viridans Streptococcus 9943; experiment: MIC, standard agar-dilution test; format: cell-based; conditions: Table XI, sodium salt
[24] = test system: Neisseria gonorrhoeae 111076-4; experiment: MIC, standard agar-dilution test; format: cell-based; conditions: Table XI, sodium salt
[25] = test system: Streptococcus pneumoniae Park I; experiment: MIC, standard broth-dilution test; format: cell-based; conditions: Table XII, sodium salt
Fusobacterium symbiosum = experiment: MIC anaerobic bacteria, standard agar-dilution test; format: cell-based
Toxicity (LD50) in rat = format: in vivo; conditions: IV

CCC(C)CCCCCCCCC(=O)N[C@@H](Cc1c[nH]c2ccccc12)C(=O)N[C@@H](CC(N)=O)C(=O)N[C@@H](CC(=O)O)C(=O)N[C@@H]1C(=O)NCC(=O)N[C@@H](CCCN)C(=O)N[C@@H](CC(=O)O)C(=O)N[C@H](C)C(=O)N[C@@H](CC(=O)O)C(=O)NCC(=O)N[C@H](CO)C(=O)N[C@@H]([C@H](C)CC(=O)O)C(=O)N[C@@H](CC(=O)c2ccccc2N)C(=O)O[C@@H]1C (stereo partly shown) [Factor C3]
growth inhibition [1]: inhibit the growth of certain pathogenic organisms, particularly gram-positive bacteria
MIC [2]: 0.25 µg/mL
LD50 (Toxicity (LD50) in mouse; IV): < 50 mg/kg
LD50 (Toxicity (LD50) in mouse; SC): 70 to 75 mg/kg
MIC (Clostridium septicum): 1.0 µg/mL (≈ 0.601 µM)
MIC [3]: 32 µg/mL (≈ 19.2 µM)
MIC [4]: < 0.5 µg/mL
MIC [5]: 1.0 µg/mL (≈ 0.601 µM)
MIC (Clostridium perfringens): 8 µg/mL (≈ 4.81 µM)
MIC (Eubacterium aerofaciens): 4 µg/mL (≈ 2.41 µM)
pKa (first group) [6]: 5.73 and 5.75
pKa (second group) [6]: 7.54 and 7.58
MIC (Staphylococcus aureus [7]): 0.06 µg/mL (≈ 0.0361 µM)
MIC [8]: 32.0 µg/mL
MIC [9]: 0.13 µg/mL
MIC [10]: 0.13 µg/mL
MIC (Streptococcus pyogenes [11]): 0.06 µg/mL (≈ 0.0361 µM)
MIC [12]: 0.13 µg/mL
MIC (Peptococcus prevoti): < 0.5 µg/mL
MIC (Bacteroides fragilis): > 128 µg/mL
MIC (Actinomyces isaelii): 1.0 µg/mL (≈ 0.601 µM)
MIC [13]: 0.06 µg/mL
ED50 (Staphylococcus aureus [14]): 0.08 mg/kg
ED50 (Streptococcus pneumoniae [15]): 0.09 mg/kg
ED50 (Streptococcus pyogenes [16]): 0.032 mg/kg
ED50 (Streptococcus pyogenes [16]; oral administration): 66 mg/kg
Percent of Rats Cured [17]: 78%
Percent of Rats with a 4-Log Titer Decrease [17]: 78%
MIC [18]: 0.13 µg/mL
Bioassay (Micrococcus luteus) (Micrococcus luteus): 803 units/mg
MIC (Streptococcus pneumoniae [19]): 0.03 µg/mL (≈ 0.018 µM)
MIC [20]: 0.13 µg/mL (≈ 0.0782 µM)
MIC (Propionibacterium acnes): 1.0 µg/mL (≈ 0.601 µM)
MIC [21]: 1.0 µg/mL (≈ 0.601 µM)
MIC [22]: 0.13 µg/mL
MIC [23]: 0.5 µg/mL
MIC [24]: 4.0 µg/mL
MIC [25]: 0.5 µg/mL
MIC (Fusobacterium symbiosum): 16 µg/mL (≈ 9.62 µM)
LD50 (Toxicity (LD50) in rat): < 160 mg/kg

CCC(C)CCCCCCC(=O)N[C@@H](Cc1c[nH]c2ccccc12)C(=O)NC(CC(N)=O)C(=O)N[C@@H](CC(=O)O)C(=O)N[C@@H]1C(=O)NCC(=O)N[C@@H](CCCN)C(=O)N[C@@H](CC(=O)O)C(=O)N[C@H](C)C(=O)N[C@@H](CC(=O)O)C(=O)NCC(=O)N[C@H](CO)C(=O)N[C@@H]([C@H](C)CC(=O)O)C(=O)N[C@@H](CC(=O)c2ccccc2N)C(=O)O[C@@H]1C (stereo in doubt) [Factor C1]
growth inhibition [1]: inhibit the growth of certain pathogenic organisms, particularly gram-positive bacteria
MIC [2]: 0.13 µg/mL
LD50 (Toxicity (LD50) in mouse; IV): > 250 mg/kg
LD50 (Toxicity (LD50) in mouse; SC): > 365 mg/kg
MIC (Clostridium septicum): 4 µg/mL (≈ 2.45 µM)
MIC [3]: 64 µg/mL (≈ 39.2 µM)
MIC [4]: 4 µg/mL (≈ 2.45 µM)
MIC [5]: 2 µg/mL (≈ 1.22 µM)
MIC (Clostridium perfringens): 16 µg/mL (≈ 9.79 µM)
MIC (Eubacterium aerofaciens): 16 µg/mL (≈ 9.79 µM)
pKa (first group) [6]: 5.7 and 5.9
MIC (Staphylococcus aureus [7]): 0.5 µg/mL (≈ 0.306 µM)
MIC [8]: 32.0 µg/mL
MIC [9]: 1.0 µg/mL
MIC [10]: 0.13 µg/mL
MIC (Streptococcus pyogenes [11]): 0.13 µg/mL (≈ 0.0795 µM)
MIC [12]: 0.5 µg/mL
MIC (Peptococcus prevoti): 2 µg/mL (≈ 1.22 µM)
MIC (Bacteroides fragilis): > 128 µg/mL
MIC (Actinomyces isaelii): 4 µg/mL (≈ 2.45 µM)
MIC [13]: 0.5 µg/mL
ED50 (Staphylococcus aureus [14]): 0.22 mg/kg
ED50 (Streptococcus pneumoniae [15]): 0.3 mg/kg
ED50 (Streptococcus pyogenes [16]): 0.064 mg/kg
ED50 (Streptococcus pyogenes [16]; oral administration): 93 mg/kg
Percent of Rats Cured [17]: 50%
Percent of Rats with a 4-Log Titer Decrease [17]: 50%
MIC [18]: 2.0 µg/mL
Bioassay (Micrococcus luteus) (Micrococcus luteus): 1663 units/mg
MIC (Streptococcus pneumoniae [19]): 0.13 µg/mL (≈ 0.0795 µM)
MIC [20]: 1.0 µg/mL (≈ 0.612 µM)
MIC (Propionibacterium acnes): 8 µg/mL (≈ 4.89 µM)
MIC [21]: 4 µg/mL (≈ 2.45 µM)
MIC [22]: 1.0 µg/mL
MIC [23]: 0.5 µg/mL
MIC [24]: 16.0 µg/mL
MIC [25]: 2.0 µg/mL
MIC (Fusobacterium symbiosum): > 128 µg/mL
LD50 (Toxicity (LD50) in rat): 479 ± 32 mg/kg

Reference: patent USRE32455E, “A-21978 antibiotics and process for their production” (priority 1985, dated 1987)
